Data reported in PMC6017838, “Synthesis and Anticandidal Activity of New Imidazole-Chalcones” (Molecules : A Journal of Synthetic Chemistry and Natural …, 2018).
Converted amounts (≈) assume the structure as drawn.

How the values were obtained:
[1] = test system: C. parapsilosis (ATCC 22019); assay: Anticandidal activity, EUCAST EDef 7.1 broth dilution with resazurin; type: cell-based; conditions: Lodderomyces parapsilosis, ATCC22019, RPMI pH 7, 24 h
Protocol: (§1) Synthesized compounds (3a–3o) were evaluated for anticandidal activity against C. albicans (ATCC 24433), C. krusei (ATCC 6258), C. parapsilosis (ATCC 22019), and C. glabrata (ATCC 90030). MIC50 values were determined via fluorometric measurements, using resazurin solution [24, 25]. Ketoconazole and fluconazole were used as a standard drug in the activity test.
(§2) Microbiological studies were performed according to the EUCAST definitive (EDef 7.1) method for C. albicans (ATCC 24433), C. krusei (ATCC 6258), C. parapsilosis (ATCC 22019), and C. glabrata (ATCC 90030). Fluconazole and ketoconazole were used as control drugs. Two MIC readings were carried out for each chemical agent. The yeasts were maintained in RPMI after overnight incubation at 37 °C. The inocula of test microorganisms was adjusted to match the turbidity of a MacFarland 0.5 standard tube as determined with a spectrophotometer, and the final inoculum size was 0.5–2.5 × 10^5 cfu/mL for the antifungal assay. Testing was carried out in RPMI at pH = 7, and the two-fold serial dilutions technique was applied. The last well on the microplates containing only inoculated broth was kept as a control, and the last well with no growth of microorganism was recorded to represent the MIC50 expressed in μg/mL. For the antifungal assays, the compounds were dissolved in DMSO. Further dilutions of the compounds and standard drugs in the test medium were prepared at the required quantities of 800, 400, 200, 100, 50, 25, 12.5, 6.25, 3.125, 1.5625, and 0.78 μg/mL concentrations RPMI. The completed plates were incubated for 24 h. At the end of the incubation, resazurin (20 µg/mL) was added into each well to control the growth in the wells. Completed plates were incubated for 2 h. MIC50 values were determined using a microplate reader at […].

C. albicans (ATCC 24433) = assay: as above; type: cell-based; conditions: Candida albicans, ATCC24433, RPMI pH 7, 24 h
Protocol: as §1, §2

C. glabrata (ATCC 90030) = assay: as above; type: cell-based; conditions: Nakaseomyces glabratus, ATCC90030, RPMI pH 7, 24 h
Protocol: as §1, §2

C. krusei (ATCC 6258) = assay: as above; type: cell-based; conditions: Pichia kudriavzevii, ATCC6258, RPMI pH 7, 24 h
Protocol: as §1, §2

[2] = test system: ergosterol biosynthesis in C. krusei; assay: Quantification of ergosterol level by LC-MS-MS; type: cell-based; conditions: Pichia kudriavzevii, mean ± SD, quadruplicate
Text: Sterols are neutral lipids of eukaryotic cells, among which ergosterol is the main constituent of fungal membranes. Ergosterol has biological functions such as membrane fluidity, regulation, activity and distribution of integral membrane proteins, and control of the cell cycle. The critical role of sterols in maintenance of cell membranes make ergosterol and its biosynthetic pathway essential for fungal growth, and a primary target for antifungal drugs to treat fungal infections. From this point of view, we performed an LCMSMS (Shimadzu LCMS 8040, Kyoto, Japan) method for quantitative determination of ergosterol content of C. krusei as reported in our recent study. Compounds 3a–3d, displaying the best anticandidal activity and low cytotoxic effect, and reference agents ketoconazole and fluconazole were tested at concentrations of 0.78–3.12 µg/mL. Ergosterol standard (Product No.: 45480, Sigma-Aldrich, Darmstadt, Germany) was used for the quantification of ergostrerol in samples, which were treated with reference agents and Compounds 3a–3d. Ergosterol quantity of the negative control was considered as 100%. Quadruplicate analyses were performed for all concentrations and the obtained data were expressed as mean ± standard deviation (SD) (Table 2).
Extraction of total sterols from C. krusei was performed as recorded by Breivik and Owades. Quantification of ergosterol level in this extract was carried out in accordance with our recently described method.

[3] = test system: NIH/3T3 mouse embryonic fibroblast cell line; assay: MTT cytotoxicity test; type: cell-based; conditions: NIH3T3, cytotoxic activity, NIH/3T3 cell line
Protocol: The main cause of failure in all stages of the new drug development process is toxicity. Early identification of toxicities of drug candidates is very important in terms of drug development studies. […] Cytotoxicity of selected compounds (3a–3d), displaying strong anticandidal activity and good predicted pharmacokinetics, was determined against NIH/3T3 mouse embryonic fibroblast cell lines (ATCC CRL1658).
Cytotoxicity was tested using the NIH/3T3 mouse embryonic fibroblast cell line (ATCC® CRL-1658™, London, UK). NIH/3T3 cells were incubated according to the supplier’s recommendations. NIH/3T3 cells were seeded at 1 × 10^4 cells into each well of the 96-well plates. The MTT assay was performed as previously described. The compounds were tested between 800 and 0.78 µg/mL concentrations. Inhibition % was calculated for each concentration according to the formula below, and IC50 values were determined by plotting a dose–response curve of inhibition % versus compound concentrations tested.
% inhibition = 100 − (mean sample × 100/mean solvent).

Row | melting point [°C] | MIC50 [1] [mg/L] | MIC50 (C. albicans (ATCC 24433)) [mg/L] | MIC50 (C. glabrata (ATCC 90030)) [mg/L] | MIC50 (C. krusei (ATCC 6258)) [mg/L] | SMILES | inhibition at 0.78 µg/mL [2] [%] | inhibition at 1.56 µg/mL [2] [%] | inhibition at 3.12 µg/mL [2] [%] | IC50 [3] [mg/L]
1 | 138 to 141 | 12.5 (≈ 28.2 µM) | 50 (≈ 113 µM) | 12.5 (≈ 28.2 µM) | 12.5 (≈ 28.2 µM) | CN(C)CCCN1CCN(c2ccc(C=CC(=O)c3ccc(-n4ccnc4)cc3)cc2)CC1 [Compound 3o, 1-(4-(1H-Imidazol-1-yl)phenyl)-3-(4-(4-(3-(dimethylamino)propyl)piperazin-1-yl)phenyl)prop-2-en-1-one] | – | – | – | –
2 | – | 1.56 (≈ 2.94 µM) | 0.78 (≈ 1.47 µM) | 1.56 (≈ 2.94 µM) | 1.56 (≈ 2.94 µM) | CC(=O)N1CCN(c2ccc(OCC3COC(Cn4ccnc4)(c4ccc(Cl)cc4Cl)O3)cc2)CC1 (stereo not drawn) [Ketoconazole, reference compound] | 61 ± 2.94 | 73.1 ± 4.16 | 84.6 ± 3.01 | –
3 | 178 to 180 | 12.5 (≈ 27.9 µM) | 50 (≈ 112 µM) | 25 (≈ 55.9 µM) | 25 (≈ 55.9 µM) | O=C(C=Cc1ccc(N2CCC(Cc3ccccc3)CC2)cc1)c1ccc(-n2ccnc2)cc1 [Compound 3k, 1-(4-(1H-Imidazol-1-yl)phenyl)-3-(4-(4-benzylpiperidin-1-yl)phenyl)prop-2-en-1-one] | – | – | – | –
4 | – | 0.78 (≈ 2.55 µM) | 0.78 (≈ 2.55 µM) | 1.56 (≈ 5.09 µM) | 1.56 (≈ 5.09 µM) | OC(Cn1cncn1)(Cn1cncn1)c1ccc(F)cc1F [Fluconazole, reference compound] | 61.7 ± 1.7 | 70.1 ± 3.22 | 82.1 ± 4.45 | –
5 | 163 to 165 | 12.5 (≈ 33.6 µM) | 50 (≈ 135 µM) | 12.5 (≈ 33.6 µM) | 25 (≈ 67.3 µM) | CC1CCCN(c2ccc(C=CC(=O)c3ccc(-n4ccnc4)cc3)cc2)C1 (stereo not drawn) [Compound 3h, 1-(4-(1H-Imidazol-1-yl)phenyl)-3-(4-(3-methylpiperidin-1-yl)phenyl)prop-2-en-1-one] | – | – | – | –
6 | 146 to 149 | 12.5 (≈ 29.1 µM) | 50 (≈ 116 µM) | 12.5 (≈ 29.1 µM) | 12.5 (≈ 29.1 µM) | CN(C)CCN1CCN(c2ccc(C=CC(=O)c3ccc(-n4ccnc4)cc3)cc2)CC1 [Compound 3n, 1-(4-(1H-Imidazol-1-yl)phenyl)-3-(4-(4-(2-(dimethylamino)ethyl)piperazin-1-yl)phenyl)prop-2-en-1-one] | – | – | – | –
7 | 188 to 189 | 25 (≈ 64.7 µM) | 50 (≈ 129 µM) | 12.5 (≈ 32.3 µM) | 12.5 (≈ 32.3 µM) | CCN1CCN(c2ccc(C=CC(=O)c3ccc(-n4ccnc4)cc3)cc2)CC1 [Compound 3m, 1-(4-(1H-Imidazol-1-yl)phenyl)-3-(4-(4-ethylpiperazin-1-yl)phenyl)prop-2-en-1-one] | – | – | – | –
8 | 160 to 161 | 25 (≈ 64.8 µM) | 50 (≈ 130 µM) | 12.5 (≈ 32.4 µM) | 25 (≈ 64.8 µM) | CC1CC(C)CN(c2ccc(C=CC(=O)c3ccc(-n4ccnc4)cc3)cc2)C1 (stereo not drawn) [Compound 3j, 1-(4-(1H-Imidazol-1-yl)phenyl)-3-(4-(3,5-dimethylpiperidin-1-yl)phenyl)prop-2-en-1-one] | – | – | – | –
9 | 205 to 207 | 12.5 (≈ 33.6 µM) | 50 (≈ 134 µM) | 12.5 (≈ 33.6 µM) | 25 (≈ 67.1 µM) | CN1CCN(c2ccc(C=CC(=O)c3ccc(-n4ccnc4)cc3)cc2)CC1 [Compound 3l, 1-(4-(1H-Imidazol-1-yl)phenyl)-3-(4-(4-methylpiperazin-1-yl)phenyl)prop-2-en-1-one] | – | – | – | –
10 | 189 to 191 | 12.5 (≈ 33.6 µM) | 50 (≈ 135 µM) | 12.5 (≈ 33.6 µM) | 12.5 (≈ 33.6 µM) | CC1CCN(c2ccc(C=CC(=O)c3ccc(-n4ccnc4)cc3)cc2)CC1 [Compound 3i, 1-(4-(1H-Imidazol-1-yl)phenyl)-3-(4-(4-methylpiperidin-1-yl)phenyl)prop-2-en-1-one] | – | – | – | –

More lines, now with the values behind:

Row | SMILES | melting point [°C] | MIC50 [1] [mg/L] | MIC50 (C. albicans (ATCC 24433)) [mg/L] | MIC50 (C. glabrata (ATCC 90030)) [mg/L] | MIC50 (C. krusei (ATCC 6258)) [mg/L] | inhibition at 0.78 µg/mL [2] [%] | inhibition at 1.56 µg/mL [2] [%] | inhibition at 3.12 µg/mL [2] [%] | IC50 [3] [mg/L]
11 | O=C(C=Cc1ccc(N2CCCCC2)cc1)c1ccc(-n2ccnc2)cc1 [Compound 3g, 1-(4-(1H-Imidazol-1-yl)phenyl)-3-(4-(piperidin-1-yl)phenyl)prop-2-en-1-one] | 198 to 199 | 12.5 (≈ 35 µM) | 50 (≈ 140 µM) | 12.5 (≈ 35 µM) | 25 (≈ 69.9 µM) | – | – | – | –
12 | COc1ccc(Sc2ccc(C=CC(=O)c3ccc(-n4ccnc4)cc3)cc2)cc1 [Compound 3d, 1-(4-(1H-Imidazol-1-yl)phenyl)-3-(4-((4-methoxyphenyl)thio)phenyl)prop-2-en-1-one] | 177 to 179 | 3.12 (≈ 7.58 µM) | 1.56 (≈ 3.78 µM) | 0.78 (≈ 1.89 µM) | 1.56 (≈ 3.78 µM) | 52.5 ± 1.83 | 67.1 ± 2.7 | 74.1 ± 2.21 | 388 ± 20.2 (≈ 940 µM)
13 | COc1ccc(Oc2ccc(C=CC(=O)c3ccc(-n4ccnc4)cc3)cc2)cc1 [Compound 3c, 1-(4-(1H-Imidazol-1-yl)phenyl)-3-(4-(4-methoxyphenoxy)phenyl)prop-2-en-1-one] | 168 to 170 | 0.78 (≈ 1.97 µM) | 1.56 (≈ 3.93 µM) | 0.78 (≈ 1.97 µM) | 0.78 (≈ 1.97 µM) | 71.1 ± 4.9 | 78.2 ± 2.7 | 84.3 ± 4.65 | 436 ± 1.03 (≈ 1100 µM)
14 | O=C(C=Cc1ccc(N2CCCC2)cc1)c1ccc(-n2ccnc2)cc1 [Compound 3e, 1-(4-(1H-Imidazol-1-yl)phenyl)-3-(4-(pyrrolidin-1-yl)phenyl)prop-2-en-1-one] | 186 to 188 | 12.5 (≈ 36.4 µM) | 50 (≈ 146 µM) | 12.5 (≈ 36.4 µM) | 12.5 (≈ 36.4 µM) | – | – | – | –
15 | O=C(C=Cc1ccc(N2CCOCC2)cc1)c1ccc(-n2ccnc2)cc1 [Compound 3f, 1-(4-(1H-Imidazol-1-yl)phenyl)-3-(4-morpholinophenyl)prop-2-en-1-one] | 214 to 215 | 12.5 (≈ 34.8 µM) | 50 (≈ 139 µM) | 12.5 (≈ 34.8 µM) | 12.5 (≈ 34.8 µM) | – | – | – | –
16 | Cc1ccc(Oc2ccc(C=CC(=O)c3ccc(-n4ccnc4)cc3)cc2)cc1 [Compound 3a, 1-(4-(1H-Imidazol-1-yl)phenyl)-3-(4-(p-tolyloxy)phenyl)prop-2-en-1-one] | 146 to 148 | 0.78 (≈ 2.05 µM) | 3.12 (≈ 8.21 µM) | 3.12 (≈ 8.21 µM) | 0.78 (≈ 2.05 µM) | 66.2 ± 2.23 | 79.5 ± 3.16 | 86.5 ± 4.77 | > 500
17 | Cc1ccc(Sc2ccc(C=CC(=O)c3ccc(-n4ccnc4)cc3)cc2)cc1 [Compound 3b, 1-(4-(1H-Imidazol-1-yl)phenyl)-3-(4-(p-tolylthio)phenyl)prop-2-en-1-one] | 168 to 169 | 0.78 (≈ 1.97 µM) | 3.12 (≈ 7.88 µM) | 3.12 (≈ 7.88 µM) | 0.78 (≈ 1.97 µM) | 68.6 ± 1.98 | 81.6 ± 4.07 | 83.5 ± 3.18 | > 500
